From patent US7109193B2, “Tricyclic diazepines tocolytic oxytocin receptor antagonists” (Wyeth, priority 2001, dated 2006)

Biological target: T1, human oxytocin receptor (Homo sapiens, UniProt P30559)
T1 construct: host or cells: CHO cells (pcDNA3.1 vector)
T1 sequence (P30559 1-389): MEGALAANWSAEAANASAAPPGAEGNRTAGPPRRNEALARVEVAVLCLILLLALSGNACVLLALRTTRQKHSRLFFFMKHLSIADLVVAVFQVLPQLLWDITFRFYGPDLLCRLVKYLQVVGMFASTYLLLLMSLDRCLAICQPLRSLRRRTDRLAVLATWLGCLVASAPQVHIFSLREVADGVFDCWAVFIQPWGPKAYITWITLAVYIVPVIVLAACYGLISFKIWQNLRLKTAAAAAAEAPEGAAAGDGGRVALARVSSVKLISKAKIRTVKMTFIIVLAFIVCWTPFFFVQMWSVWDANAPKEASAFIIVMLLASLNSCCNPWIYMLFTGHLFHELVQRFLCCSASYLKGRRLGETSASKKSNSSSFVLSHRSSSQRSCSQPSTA
Assay: Oxytocin binding in Chinese Hamster Ovary cell membranes expressing human oxytocin receptors
Details: 100 nM, CHO cell membranes, [3H]oxytocin, values without parentheses; for inhibition at 0.1 µM: read-out: OT % inhibition @ 100% nM
Method: Oxytocin Binding in Chinese Hamster Ovary Cell Membranes Expressing Human Oxytocin Receptors
The trypsin is removed by aspiration and the cells dislodged by tapping. Cell Culture medium (e.g. 30 mL for 1:30 split) is immediately added and mixed well to inactivate trypsin. 1 mL of detached cells is added to new culture flasks containing fresh Cell Culture medium (e.g. into 25 mL per T-150 flask), and mixed gently. The cells are incubated at 37° C. in 5% CO2. The medium is changed at 3 to 4 days interval (or as appropriate). […] All steps are done under sterile conditions. B. Membrane Preparation: The cells are washed twice gently with Hank's Balanced Salt solution (e.g., use 10 mL per T-150 flask). […] The contents are transferred to centrifuge tubes (50 mL size) kept in ice bath. All subsequent steps are done at 4° C. The tubes are centrifuged at 300×g for 15 min (1380 rpm on SORVAL, Model RT6000D, using rotor for 50 mL tubes). The supernatant is discarded and the cells suspended in homogenizing buffer (10 mM Tris-HCl containing 0.25 M sucrose and 1 mM EDTA, pH 7.4) ensuring that the volume of the buffer is about ten times the volume of the cell pellet. The cells are pooled into a centrifuge tube (50 mL) and homogenized with a Polytron at setting 6 for 10 sec. The homogenate is transferred into a Potter-Elvjehm homogenizer and homogenized with 3 strokes. The homogenate is centrifuged at 1500×g for 10 min at 4° C. (3100 rpm using SORVAL, model RT6000D, using rotor for 50 mL tubes). The pellet is discarded. The supernatant is centrifuged at 100,000×g for 60 min. at 4° C. (Beckman L8-80M ultracentrifuge; spin at 37,500 rpm with rotor type 70 Ti for 50 mL tubes; 38,000 rpm with type 80Ti for 15 mL tubes; or 35,800 rpm with rotor type 45Ti). The supernantant is discarded and the pellet suspended in 3 to 4 mL of Tris buffer (50 mM TRIS-HCl, pH 7.4). The protein content is estimated by the Bradford or Lowry method. The volume of the membrane suspension is adjusted with the membrane buffer (50 mM Tris-HCl containing 0.1% BSA and 0.1 mM PMSF) to give 3.0 mg/mL (or as appropriate) of protein. The membranes are aliquoted and stored at −70° C. C. Radioligand Binding Assay: In wells of a 96-well format microtiter plate, is added 90, 110 or 130 μL (to make up a final volume of 200 μL) of assay buffer containing 50 mM of Tris-HCl (pH 7.4), […], 1 mg % aprotinin, 1 mg % leupeptin, 2 mg % 1,10-phenanthroline, 10 mg % trypsin inhibitor, and 0.1 mM PMSF. The inhibitors are added on the day of the experiment. The components are mixed at room temperature, and then kept in ice bath following adjustment of the pH to 7.4. […] For oxytocin and other peptide ligands, 20 μL of 50% DMSO is added and the assay buffer volume is adjusted accordingly. To each well is added 50 μL of frozen membrane suspension thawed immediately prior to use and diluted in assay buffer to the required concentration (equivalent to 25 to 50 μg of protein/well as needed). 20 μL of 8 nM [^3H]oxytocin in the assay buffer, prepared just before use is added and incubated at room temperature for 60 min. shaking the plate on a mechanical shaker for the first 15 min. The incubation is stopped by rapid filtration of the plate contents followed by washing with ice-cold buffer (50 mM Tris-HCl, pH 7.4) using a cell harvester (Tomtek and Printed filtermat-B filter paper). The filter paper is thoroughly dried (7–12 min. in a microwave oven) and impregnated with MeltiLex B/H melt-on scintillation wax sheets and the radioactivity counted in a betaplate scintillation counter.
Binding data is either reported as percent inhibition at a certain concentration or if an IC50 was calculated, as a nanomolar concentration.

| inhibition at 0.1 µM [%] | SMILES | OT % inhibition @ 100% nM [%] |
| --- | --- | --- |
| 47 | COc1cccc(-c2ccc(C(=O)N3Cc4ccc(C(=O)NCCN5CCCCC5)n4Cc4ccccc43)cc2C)c1 [Example 151, 10-[(3′-Methoxy-2-methyl[1,1′-biphenyl]-4-yl)carbonyl]-N-[2-(1-piperidinyl)ethyl]-10,11-dihydro-5H-pyrrolo[2,1-c][1,4]benzodiazepine-3-carboxamide] | – |
| – | COc1cc(C(=O)N2Cc3ccc(C(=O)N(C)CCCN(C)C)n3Cc3ccccc32)ccc1-n1c(C)ccc1C [Example 310, N-[3-(Dimethylamino)propyl]-10-[4-(2,5-dimethyl-i H-pyrrol-1-yl)-3-methoxybenzoyl]-N-methyl-10,11-dihydro-5H-pyrrolo[2,1-c][1,4]benzodiazepine-3-carboxamide] | 58 |
| – | Cc1ccccc1-c1ccc(C(=O)N2Cc3ccc(C(=O)N4CC[C@@H](N(C)C)C4)n3Cc3ccccc32)cc1C [Example 274, [(3R)-3-(Dimethylamino)pyrrolidinyl]{10-[(2,2′-dimethyl[1,1′-biphenyl]-4-yl)carbonyl]-10,11-dihydro-5H-pyrrolo[2,1-c][1,4]benzodiazepin-3-yl}methanone] | 103 |
| – | COc1cc(C(=O)N2Cc3ccc(C(=O)N4CCC[C@H]4CN4CCCC4)n3Cc3ccccc32)ccc1-c1ccccc1C [Example 266, {10-[(2-Methoxy-2′-methyl[1,1′-biphenyl]-4-yl)carbonyl]-10,11-dihydro-5H-pyrrolo[2,1-c][1,4]benzodiazepin-3-yl}[(2S)-2-(1-pyrrolidinylmethyl)pyrrolidinyl]methanone] | 97 |
| 54 | COc1cc(C(=O)N2Cc3ccc(C(=O)NCCN4CCCCC4)n3Cc3ccccc32)ccc1-c1ccccc1C [Example 154, 10-[(2-Methoxy-2′-methyl[1,1′-biphenyl]4-yl)carbonyl]-N-[2-(1-piperidinyl)ethyl]-10,11-dihydro-5H-pyrrolo[2,1-c][1,4]benzodiazepine-3-carboxamide] | – |
| 70 | COc1cccc(-c2cc(OC)c(C(=O)N3Cc4ccc(C(=O)N5CCC(N6CCCCC6)CC5)n4Cc4ccccc43)cc2Cl)c1 [Example 117, {10-[(6-Chloro-3-methoxy-3′-methoxy[1,1′-biphenyl]-4-yl)carbonyl]-10,11-dihydro-5H-pyrrolo[2,1-c][1,4]benzodiazepin-3-yl}[4-(1-piperidinyl)-1-piperidinyl]methanone] | – |
| – | COc1ccccc1-c1ccc(C(=O)N2Cc3ccc(C(=O)N4CCC[C@H]4CN4CCCC4)n3Cc3ccccc32)cc1 [Example 265, {10-[(2′-Methoxy[1,1′-biphenyl]-4-yl)carbonyl]-10,11-dihydro-5H-pyrrolo[2,1-c][1,4]benzodiazepin-3-yl}[(2S)-2-(1-pyrrolidinylmethyl)pyrrolidinyl]methanone] | 100 |
| – | O=C(c1ccc2n1Cc1ccccc1N(C(=O)c1ccc(-c3cccc4ccccc34)cc1Cl)C2)N1CCC(N2CCCCC2)CC1 [Example 121] | 0 |
| 52 | COc1cc(-c2ccccc2C)c(Cl)cc1C(=O)N1Cc2ccc(C(=O)NCCCn3ccnc3)n2Cc2ccccc21 [Example 129, 10-[(6-Chloro-3-methoxy-2′-methyl[1,1′-biphenyl]-4-yl)carbonyl]-N-[3-(1H-imidazol-1-yl)propyl]-10,11-dihydro-5H-pyrrolo[2,1-c][1,4]benzodiazepine-3-carboxamide] | – |
| – | COc1cc(C(=O)N2Cc3ccc(C(=O)N4CC[C@@H](N(C)C)C4)n3Cc3ccccc32)ccc1-c1cccc2ccccc12 [Example 276, [(3R)-3-(Dimethylamino)pyrrolidinyl]{10-[3-methoxy-4-(1-naphthyl)benzoyl]-10,11-dihydro-5H-pyrrolo[2,1-c][1,4]benzodiazepin-3-yl}methanone] | 74 |
| 47 | COc1ccccc1-c1ccc(C(=O)N2Cc3ccc(C(=O)NCCCn4ccnc4)n3Cc3ccccc32)cc1C [Example 123, N-[3-(1H-Imidazol-1-yl)propyl]-10-[(2′-methoxy-2-methyl[1,1′-biphenyl]-4-yl)carbonyl]-10,11-dihydro-5H-pyrrolo[2,1-c][1,4]benzodiazepine-3-carboxamide] | – |
| – | COc1cc(C(=O)N2Cc3ccc(C(=O)N4CC[C@@H](N(C)C)C4)n3Cc3ccccc32)ccc1-c1ccccc1C [Example 281, [(3R)-3-(Dimethylamino)pyrrolidinyl]{10-[(2-methoxy-2′-methyl[1,1′-biphenyl]-4-yl)carbonyl]-10,11-dihydro-5H-pyrrolo[2,1-c][1,4]benzodiazepin-3-yl}methanone] | 93 |
| 31 | COc1ccccc1-c1ccc(C(=O)N2Cc3ccc(C(=O)NCCCn4ccnc4)n3Cc3ccccc32)cc1OC [Example 132, 10-[(2,2′-Dimethoxy[1,1′-biphenyl]-4-yl)carbonyl]-N-[3-(1H-imidazol-1-yl)propyl]-10,11-dihydro-5H-pyrrolo[2,1-c][1,4]benzodiazepine-3-carboxamide] | – |
| – | COc1ccccc1-c1ccc(C(=O)N2Cc3ccc(C(=O)N4CCC[C@H]4CN4CCCC4)n3Cc3ccccc32)cc1OC [Example 269, {10-[(2,2′-Dimethoxy[1,1′-biphenyl]-4-yl)carbonyl]-10,11-dihydro-5H-pyrrolo[2,1-c][1,4]benzodiazepin-3-yl}[(2S)-2-(1-pyrrolidinylmethyl)pyrrolidinyl]methanone] | 88 |
| – | Cc1ccccc1-c1ccc(C(=O)N2Cc3ccc(C(=O)N4CCC[C@H]4CN4CCCC4)n3Cc3ccccc32)cc1 [Example 264, {10-[(2′-Methyl[1,1′-biphenyl]-4-yl)carbonyl]-10,11-dihydro-5H-pyrrolo[2,1-c][1,4]benzodiazepin-3-yl}[(2S)-2-(1-pyrrolidinylmethyl)pyrrolidinyl]methanone] | 94 |
| – | CN(C)[C@@H]1CCN(C(=O)c2ccc3n2Cc2ccccc2N(C(=O)c2ccc(-c4cccc5ccccc45)cc2Cl)C3)C1 [Example 277, {10-[2-Chloro-4-(1-naphthyl)benzoyl]-10,11-dihydro-5H-pyrrolo[2,1-c][1,4]benzodiazepin-3-yl}[(3R)-3-(dimethylamino)pyrrolidinyl]methanone] | 41 |
| 96 | COc1cccc(-c2ccc(C(=O)N3Cc4ccc(C(=O)N(C)CCCN(C)C)n4Cc4ccccc43)cc2OC)c1 [Example 108, 10-[(2,3′-Dimethoxy[1,1′-biphenyl]-4-yl)carbonyl]-N-[3-(dimethylamino)propyl]-N-methyl-10,11-dihydro-5H-pyrrolo[2,1-c][1,4]benzodiazepine-3-carboxamide] | – |
| 25 | Cc1ccccc1-c1ccc(C(=O)N2Cc3ccc(C(=O)N4CCC(N5CCCCC5)CC4)n3Cc3ccccc32)cc1 [Example 115, {10-[(2′-Methyl[1,1′-biphenyl]-4-yl)carbonyl]-10,11-dihydro-5H-pyrrolo[2,1-c][1,4]benzodiazepin-3-yl}[4-(1-piperidinyl)-1-piperidinyl]methanone] | – |
